Experimental data published in patent US9139557B2, “Carboxamide compounds and their use as calpain inhibitors” (Abbott GmbH & Co. KG, priority 2006, dated 2015).

Legend:
Format in all cases: biochemical
[1] = molecular target: T1, cathepsin S (Homo sapiens, UniProt P25774); assay: Cathepsin S enzyme inhibition in vitro (kinetic fluorescence assay); settings: Ki(cathepsin S)/Ki(calpain) ratio
T1 construct: purchased Calbiochem 219343; host or cells: E. coli
Method: (§1) Testing for blockade of the corresponding enzymic activities was carried out by means of kinetic fluorescence assays (excitation 390 nm, emission 460 nm).
(§2) Apparent Ki values were calculated from the experimentally determined IC50 values by the Cheng-Prussoff relation assuming a reversible competitive enzyme inhibition. The Km values of the substrates used under the assay conditions indicated above were: 90 μM (Z-Phe-Arg-AMC, cathepsin B), 10 μM (Z-Gly-Pro-Arg-AMC, cathepsin K), 2 μM (Z-Phe-Arg-AMC, cathepsin L), and 30 μM (Z-Val-Val-Arg-AMC, cathepsin S).
(§3) The indicated Ki values are averages of the inhibition constants calculated on the basis of 2 to 4 independent dose-effect plots.
(§4) • 1. Calpain I: • 20 nM calpain-I—isolated from human erythrocytes (Calbiochem #208713), 100 μM Suc-Leu-Tyr-AMC (Bachem #1-1355) as substrate in buffer with 62 mM imidazole, 0.3 mM CaCl2, 0.10% CHAPS, 0.05% BSA, 1 mM DTT at pH 7.3 and room temperature. • 2. Cathepsin B: • 0.25 nM cathepsin B—isolated from human liver (Calbiochem #219362), 100 μM Z-Phe-Arg-AMC (Bachem #1-1160) as substrate 50 mM MES, 2 mM EDTA, 0.05% Brij 35, 2.5 mM L-cysteine, pH 6.0, room temperature. • 3. Cathepsin K: • 3 nM cathepsin K—activated from recombinant human procathepsin K from E. coli (Calbiochem #342001), 10 μM Z-Gly-Pro-Arg-AMC (Biomol #P-142) as substrate in 50 mM MES, 2 mM EDTA, 0.05% Brij 35, 2.5 mM L-cysteine, pH 6.0, room temperature. • 4. Cathepsin L: • 1 nM cathepsin L—isolated from human liver (Calbiochem #219402), 2 μM Z-Phe-Arg-AMC (Bachem #1-1160) as substrate in 50 mM MES, 2 mM EDTA, 0.05% Brij 35, 2.5 mM L-cysteine, pH 6.0, room temperature. • 5. Cathepsin S: • 0.5 nM recombinant human cathepsin S from E. coli (Calbiochem #219343), 20 μM Z-Val-Val-Arg-AMC (Bachem #1-1540) as substrate in 50 mM MES, 2 mM EDTA, 0.05% Brij 35, 2.5 mM L-cysteine, pH 6.0, room temperature.

[2] = molecular target: T2, cathepsin B (Homo sapiens, UniProt P07858); assay: Cathepsin B enzyme inhibition in vitro (kinetic fluorescence assay); settings: Ki(cathepsin B)/Ki(calpain) ratio
T2 construct: cathepsin B—isolated from human liver; purchased Calbiochem 219362; host or cells: human liver (tissue isolate)
Method: as §1, §2, §3, §4

[3] = molecular target: T3, cathepsin L (Homo sapiens, UniProt P07711); assay: Cathepsin L enzyme inhibition in vitro (kinetic fluorescence assay); settings: Ki(cathepsin L)/Ki(calpain) ratio
T3 construct: cathepsin L—isolated from human liver; purchased Calbiochem 219402; host or cells: human liver (tissue isolate)
Method: as §1, §2, §3, §4

T3 sequence (P07711 114-333): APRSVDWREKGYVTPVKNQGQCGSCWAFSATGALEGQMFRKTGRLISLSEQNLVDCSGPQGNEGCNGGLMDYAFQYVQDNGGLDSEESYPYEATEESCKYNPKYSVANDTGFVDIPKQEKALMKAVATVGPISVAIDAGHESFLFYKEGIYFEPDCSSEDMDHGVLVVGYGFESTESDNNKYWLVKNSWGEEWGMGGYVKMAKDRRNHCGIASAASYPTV
T1 sequence (P25774 115-331): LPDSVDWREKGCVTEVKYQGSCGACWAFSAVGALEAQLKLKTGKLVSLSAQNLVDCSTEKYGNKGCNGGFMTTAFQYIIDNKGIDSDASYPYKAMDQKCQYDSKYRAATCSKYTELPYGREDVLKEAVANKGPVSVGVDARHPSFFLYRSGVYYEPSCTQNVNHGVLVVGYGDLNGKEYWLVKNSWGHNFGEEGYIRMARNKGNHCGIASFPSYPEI

Molecule	Sel cat. S [1]	Sel cat. B [2]	Sel cat. L [3]
NC(=O)C(=O)C(Cc1ccccc1)NC(=O)c1cccnc1-n1ccc(-c2ccc(N3CCCCC3)cc2)n1 (centres unmarked) [Example 64, N-(3-Amino-1-benzyl-2,3-dioxopropyl)-2-[3-(4-piperidin-1-ylphenyl)-1H-pyrazol-1-yl]nicotinamide]	++ (++ means a Ki(cathepsin S)/Ki(calpain) ratio of ≧100)	+ (+ means 10≦Ki(cathepsin B)/Ki(calpain)<30)	
CC(C)CC(NC(=O)c1cc(Cl)cnc1-n1ccc(-c2ccccc2)n1)C(=O)C(N)=O (centres unmarked) [Example 32, N-{1-[Amino(oxo)acetyl]-3-methylbutyl}-5-chloro-2-(3-phenyl-1H-pyrazol-1-yl)nicotinamide]		+ (+ means 10≦Ki(cathepsin B)/Ki(calpain)<30)	
COc1ccc(-c2cn(-c3ncccc3C(=O)NC(Cc3ccccc3)C(=O)C(N)=O)cn2)cc1 (centres unmarked) [Example 13, N-(3-Amino-1-benzyl-2,3-dioxopropyl)-2-[4-(4-methoxyphenyl)-1H-imidazol-1-yl]nicotinamide]	+ (+ means 50≦Ki(cathepsin S)/Ki(calpain)<100)		++ (++ means a Ki(cathepsin L)/Ki(calpain) ratio of ≧50)
NC(=O)C(=O)C(Cc1ccccc1)NC(=O)c1cccnc1-n1ccc(-c2cccc3cnccc23)n1 (centres unmarked) [Example 156, N-[3-Amino-2,3-dioxo-1-(phenylmethyl)propyl]-2-(3-isoquinolin-5-yl-1H-pyrazol-1-yl)pyridine-3-carboxamide]	++ (++ means a Ki(cathepsin S)/Ki(calpain) ratio of ≧100)	+ (+ means 10≦Ki(cathepsin B)/Ki(calpain)<30)	+ (+ means 30≦Ki(cathepsin L)/Ki(calpain)<50)
NC(=O)C(=O)C(Cc1ccc(Br)cc1)NC(=O)c1cccnc1-n1ccc(-c2ccccc2)n1 (centres unmarked) [Example 122, N-{3-Amino-1-[(4-bromophenyl)methyl]-2,3-dioxopropyl}-2-(3-phenyl-1H-pyrazol-1-yl)pyridine-3-carboxamide]	++ (++ means a Ki(cathepsin S)/Ki(calpain) ratio of ≧100)	++ (++ means a Ki(cathepsin B)/Ki(calpain) ratio of ≧30)	++ (++ means a Ki(cathepsin L)/Ki(calpain) ratio of ≧50)
CCCCC(NC(=O)c1cccnc1-n1cnc(-c2ccc(N3CCOCC3)cc2)c1)C(=O)C(N)=O.Cl (centres unmarked) [Example 15, N-{1-[Amino(oxo)acetyl]pentyl}-2-[4-(4-morpholin-4-ylphenyl)-1H-imidazol-1-yl]nicotinamide hydrochloride]	+ (+ means 50≦Ki(cathepsin S)/Ki(calpain)<100)		++ (++ means a Ki(cathepsin L)/Ki(calpain) ratio of ≧50)
CCCCC(NC(=O)c1cccnc1-n1ccc(-c2cccc(N3CCOCC3)c2)n1)C(=O)C(N)=O (centres unmarked) [Example 59, N-{1-[Amino(oxo)acetyl]pentyl}-2-[3-(3-morpholin-4-ylphenyl)-1H-pyrazol-1-yl]nicotinamide]	+ (+ means 50≦Ki(cathepsin S)/Ki(calpain)<100)		++ (++ means a Ki(cathepsin L)/Ki(calpain) ratio of ≧50)
Cc1cc(-c2ccccc2)nn1-c1ncccc1C(=O)NC(Cc1ccccc1)C(=O)C(N)=O (centres unmarked) [Example 61, N-(3-Amino-1-benzyl-2,3-dioxopropyl)-2-(5-methyl-3-phenyl-1H-pyrazol-1-yl)nicotinamide]	++ (++ means a Ki(cathepsin S)/Ki(calpain) ratio of ≧100)	+ (+ means 10≦Ki(cathepsin B)/Ki(calpain)<30)	
NC(=O)C(=O)C(Cc1ccccc1)NC(=O)c1cccnc1-n1cc2ccccc2n1 (centres unmarked) [Example 78, N-(3-Amino-1-benzyl-2,3-dioxopropyl)-2-(2H-indazol-2-yl)nicotinamide]	+ (+ means 50≦Ki(cathepsin S)/Ki(calpain)<100)		++ (++ means a Ki(cathepsin L)/Ki(calpain) ratio of ≧50)
NC(=O)C(=O)C(Cc1cccs1)NC(=O)c1cccnc1-n1ccc(-c2ccc(F)cc2)n1 (centres unmarked) [Example 57, N-[3-Amino-2,3-dioxo-1-(2-thienylmethyl)propyl]-2-[3-(4-fluorophenyl)-1H-pyrazol-1-yl]nicotinamide]	++ (++ means a Ki(cathepsin S)/Ki(calpain) ratio of ≧100)		++ (++ means a Ki(cathepsin L)/Ki(calpain) ratio of ≧50)
NC(=O)C(=O)C(Cc1ccccc1)NC(=O)c1cccnc1-n1ccc(-c2ccc(Cl)cc2)n1 (centres unmarked) [Example 39, N-(3-Amino-1-benzyl-2,3-dioxopropyl)-2-[3-(4-chlorophenyl)-1H-pyrazol-1-yl]nicotinamide]	++ (++ means a Ki(cathepsin S)/Ki(calpain) ratio of ≧100)		++ (++ means a Ki(cathepsin L)/Ki(calpain) ratio of ≧50)
CCCCC(NC(=O)c1cccnc1-n1ccc(-c2ccc(OC)cc2)n1)C(=O)C(N)=O (centres unmarked) [Example 49, N-{1-[Amino(oxo)acetyl]pentyl}-2-[3-(4-methoxyphenyl)-1H-pyrazol-1-yl]nicotinamide]	++ (++ means a Ki(cathepsin S)/Ki(calpain) ratio of ≧100)		+ (+ means 30≦Ki(cathepsin L)/Ki(calpain)<50)
CS(=O)(=O)NCc1cn(-c2ncccc2C(=O)NC(Cc2ccccc2)C(=O)C(N)=O)nc1-c1ccc(F)cc1 (centres unmarked) [Example 187, N-[3-Amino-2,3-dioxo-1-(phenylmethyl)propyl]-2-[3-(4-fluorophenyl)-4-{[(methylsulfonyl)amino]methyl}-1H-pyrazol-1-yl]pyridine-3-carboxamide]	++ (++ means a Ki(cathepsin S)/Ki(calpain) ratio of ≧100)		+ (+ means 30≦Ki(cathepsin L)/Ki(calpain)<50)
N-{3-Amino-1-[(4-fluorophenyl)methyl]-2,3-dioxopropyl}-2-[3-(2,3-dichlorophenyl)-1H-pyrazol-1-yl]pyridine-3-carboxamide [Example 161]	++ (++ means a Ki(cathepsin S)/Ki(calpain) ratio of ≧100)	+ (+ means 10≦Ki(cathepsin B)/Ki(calpain)<30)	+ (+ means 30≦Ki(cathepsin L)/Ki(calpain)<50)
CCCCC(NC(=O)c1cccnc1-n1ccc(-c2ccc(N3CCOCC3)cc2)n1)C(=O)C(N)=O (centres unmarked) [Example 33, N-{1-[Amino(oxo)acetyl]pentyl}-2-[3-(4-morpholin-4-ylphenyl)-1H-pyrazol-1-yl]nicotinamide]	+ (+ means 50≦Ki(cathepsin S)/Ki(calpain)<100)	+ (+ means 10≦Ki(cathepsin B)/Ki(calpain)<30)	
NC(=O)C(=O)C(Cc1ccccc1)NC(=O)c1cccnc1-n1cc2c(n1)-c1ccccc1OCC2 (centres unmarked) [Example 141, N-[3-Amino-2,3-dioxo-1-(phenylmethyl)propyl]-2-(4,5-dihydro-2H-Mbenzoxepino[5,4-c]pyrazol-2-yl)pyridine-3-carboxamide]	++ (++ means a Ki(cathepsin S)/Ki(calpain) ratio of ≧100)		++ (++ means a Ki(cathepsin L)/Ki(calpain) ratio of ≧50)
N#Cc1ccc(-c2ccn(-c3ncccc3C(=O)NC(Cc3ccccc3)C(=O)C(N)=O)n2)cc1 (centres unmarked) [Example 62, N-(3-Amino-1-benzyl-2,3-dioxopropyl)-2-[3-(4-cyanophenyl)-1H-pyrazol-1-yl]nicotinamide]	++ (++ means a Ki(cathepsin S)/Ki(calpain) ratio of ≧100)		++ (++ means a Ki(cathepsin L)/Ki(calpain) ratio of ≧50)
CCCCC(NC(=O)c1cccnc1-n1cnc(-c2ccc(C(F)(F)F)cc2)c1)C(=O)C(N)=O.Cl (centres unmarked) [Example 17, N-{1-[Amino(oxo)acetyl]pentyl}-2-{4-[4-(trifluoromethyl)phenyl]-1H-imidazol-1-yl}nicotinamide hydrochloride]	+ (+ means 50≦Ki(cathepsin S)/Ki(calpain)<100)		++ (++ means a Ki(cathepsin L)/Ki(calpain) ratio of ≧50)
CCCCC(NC(=O)c1cc(Cl)cnc1-n1ccc(-c2ccccc2)n1)C(=O)C(N)=O (centres unmarked) [Example 28, N-{1-[Amino(oxo)acetyl]pentyl}-5-chloro-2-(3-phenyl-1H-pyrazol-1-yl)nicotinamide]		+ (+ means 10≦Ki(cathepsin B)/Ki(calpain)<30)	
NC(=O)C(=O)C(Cc1ccccc1)NC(=O)c1cccnc1-n1cnc(-c2ccc(Cl)cc2)c1 (centres unmarked) [Example 9, N-(3-Amino-1-benzyl-2,3-dioxopropyl)-2-[4-(4-chlorophenyl)-1H-imidazol-1-yl]nicotinamide]	++ (++ means a Ki(cathepsin S)/Ki(calpain) ratio of ≧100)		+ (+ means 30≦Ki(cathepsin L)/Ki(calpain)<50)
